From ChEMBL document CHEMBL4393680, “Design, synthesis and biological evaluation of novel thioquinazolinone-based 2-aminobenzamide derivatives as potent histone deacetylase (HDAC) inhibitors” (Eur J Med Chem, 2019)
pIC50: −log10 of the molar value.

What was measured:
A-375 [1] = assay: Antiproliferative activity against human A375 cells assessed as reduction in cell growth at 8 uM incubated for 72 hrs by CCK-8 assay relative to control; assay type: functional; conditions: A-375, 72 h
HeLa [2] = assay: Antiproliferative activity against human HeLa cells assessed as reduction in cell growth at 2 uM incubated for 72 hrs by CCK-8 assay relative to control; assay type: functional
A-375 [3] = assay: Antiproliferative activity against human A375 cells assessed as reduction in cell growth at 2 uM incubated for 72 hrs by CCK-8 assay relative to control; assay type: functional; conditions: A-375, 72 h
HCT-116 [4] = assay: Antiproliferative activity against human HCT116 cells assessed as reduction in cell growth at 2 uM incubated for 72 hrs by CCK-8 assay relative to control; assay type: functional; conditions: HCT-116, 72 h
A549 [5] = assay: Antiproliferative activity against human A549 cells assessed as reduction in cell growth incubated for 72 hrs by CCK-8 assay; assay type: functional, cell-based; conditions: A549, 72 h
A549 [6] = assay: Antiproliferative activity against human A549 cells assessed as reduction in cell growth at 8 uM incubated for 72 hrs by CCK-8 assay relative to control; assay type: functional; conditions: A549, 72 h
A549 [7] = assay: Antiproliferative activity against human A549 cells assessed as reduction in cell growth at 2 uM incubated for 72 hrs by CCK-8 assay relative to control; assay type: functional; conditions: A549, 72 h
SMMC-7721 [8] = assay: Antiproliferative activity against human SMMC7721 cells assessed as reduction in cell growth at 8 uM incubated for 72 hrs by CCK-8 assay relative to control; assay type: functional; conditions: SMMC-7721, 72 h
HeLa [9] = assay: Antiproliferative activity against human HeLa cells assessed as reduction in cell growth at 8 uM incubated for 72 hrs by CCK-8 assay relative to control; assay type: functional
SMMC-7721 [10] = assay: Antiproliferative activity against human SMMC7721 cells assessed as reduction in cell growth at 2 uM incubated for 72 hrs by CCK-8 assay relative to control; assay type: functional; conditions: SMMC-7721, 72 h
HCT-116 [11] = assay: Antiproliferative activity against human HCT116 cells assessed as reduction in cell growth at 8 uM incubated for 72 hrs by CCK-8 assay relative to control; assay type: functional; conditions: HCT-116, 72 h
HCT-116 [12] = assay: Antiproliferative activity against human HCT116 cells assessed as reduction in cell growth incubated for 72 hrs by CCK-8 assay; assay type: functional, cell-based; conditions: HCT-116, 72 h
SMMC-7721 [13] = assay: Antiproliferative activity against human SMMC7721 cells assessed as reduction in cell growth incubated for 72 hrs by CCK-8 assay; assay type: functional, cell-based; conditions: SMMC-7721, 72 h
A-375 [14] = assay: Antiproliferative activity against human A375 cells assessed as reduction in cell growth incubated for 72 hrs by CCK-8 assay; assay type: functional, cell-based; conditions: A-375, 72 h
HeLa [15] = assay: Antiproliferative activity against human HeLa cells assessed as reduction in cell growth incubated for 72 hrs by CCK-8 assay; assay type: functional, cell-based

Row | Compound | inhibition at 8 µM (A-375 [1]) [%] | inhibition at 2 µM (HeLa [2]) [%] | inhibition at 2 µM (A-375 [3]) [%] | inhibition at 2 µM (HCT-116 [4]) [%] | pIC50 (A549 [5]) | inhibition at 8 µM (A549 [6]) [%] | inhibition at 2 µM (A549 [7]) [%] | inhibition at 8 µM (SMMC-7721 [8]) [%] | inhibition at 8 µM (HeLa [9]) [%] | inhibition at 2 µM (SMMC-7721 [10]) [%] | inhibition at 8 µM (HCT-116 [11]) [%] | pIC50 (HCT-116 [12]) | pIC50 (SMMC-7721 [13]) | pIC50 (A-375 [14]) | pIC50 (HeLa [15])
1 | COc1ccc2c(=O)n(CCCC[S+](C)[O-])c(SCc3ccc(/C=C/C(=O)Nc4ccccc4N)cc3)nc2c1 (stereo unspecified) | 18.8 | 1.1 | 13.2 | 4.5 | 4.70 | 62.7 | 53.8 | 9.9 | 41 | 3.1 | 8.6 | – | – | – | –
2 | COc1ccc2c(=O)n(-c3ccccc3C)c(SCc3ccc(C(=O)Nc4ccccc4N)cc3)nc2c1 | 83.6 | 23.6 | 39.1 | 73.5 | – | 54.5 | 36.3 | 78.1 | 33.1 | 58.2 | 88.2 | 5.89 | 5.27 | 5.64 | –
3 | CCn1c(SCc2ccc(C(=O)Nc3ccccc3N)cc2)nc2cc(Br)ccc2c1=O | 40.7 | 30.4 | 19.8 | 24.8 | – | 45.4 | 20.4 | 36.8 | 41.3 | 22.9 | 68.5 | 5.36 | – | – | –
4 | Cc1ccc2nc(SCc3ccc(C(=O)Nc4ccccc4N)cc3)n(C)c(=O)c2c1 | 73.6 | 63 | 44.6 | 49.2 | – | 33.9 | 18.2 | 75.7 | 85.5 | 65.6 | 79.3 | 5.70 | 5.78 | 5.59 | 6.02
5 | Cn1c(SCc2ccc(C(=O)Nc3ccccc3N)cc2)nc2cc(Cl)ccc2c1=O | 51.2 | 51.1 | 44.5 | 58.7 | – | 22.3 | 21.8 | 73.2 | 76.5 | 38.9 | 81.5 | 5.65 | 5.48 | 5.52 | 5.30
6 | Cn1c(SCc2ccc(C(=O)Nc3ccccc3N)cc2)nc2cc(F)ccc2c1=O | 64.3 | 39.7 | 30 | 51.7 | – | 45 | 21.3 | 75.1 | 84.6 | 52.5 | 79.7 | 5.57 | 6.05 | 5.48 | 5.32
7 | COc1ccc2c(=O)n(-c3cccc(Cl)c3)c(SCc3ccc(C(=O)Nc4ccccc4N)cc3)nc2c1 | 36 | 12.3 | 21.7 | 22 | – | 30 | 20.9 | 27 | 51.2 | 21.3 | 64 | 5.24 | – | – | –
8 | Cn1c(SCc2ccc(/C=C/C(=O)Nc3ccccc3N)cc2)nc2cc(Cl)ccc2c1=O | 10.2 | 29.3 | 2.4 | 2.1 | 4.78 | 68.8 | 15.5 | 20.9 | 38.8 | 7.8 | 21.5 | – | – | – | –
9 | Cc1cccc2nc(SCc3ccc(C(=O)Nc4ccccc4N)cc3)n(C)c(=O)c12 | 36.9 | 43.8 | 35.6 | 29.1 | – | 41.8 | 34.7 | 68.5 | 58.3 | 59.2 | 68.5 | – | 6.16 | – | –
10 | CCCn1c(SCc2ccc(/C=C/C(=O)Nc3ccccc3N)cc2)nc2cc(Cl)ccc2c1=O | 48.2 | 32.7 | 20.5 | 18.2 | 5.40 | 61.5 | 34.3 | 40.2 | 41.5 | 6.6 | 27.3 | – | – | – | –
11 | CCCCn1c(SCc2ccc(C(=O)Nc3ccccc3N)cc2)nc2cc(F)ccc2c1=O | 43.1 | 30.9 | 18 | 22.8 | – | 46.5 | 41.1 | 41.6 | 30.9 | 9.1 | 78.2 | 5.44 | – | – | –
12 | Cc1cccc2c(=O)n(C)c(SCc3ccc(C(=O)Nc4ccccc4N)cc3)nc12 | 54.9 | 47.3 | 48.3 | 42.7 | 5.07 | 66.8 | 38 | 74.4 | 51.4 | 54.3 | 76.4 | 5.51 | 5.57 | 5.28 | –
13 | Cc1ccc2c(=O)n(C)c(SCc3ccc(/C=C/C(=O)Nc4ccccc4N)cc3)nc2c1 | 36.1 | 22.1 | 29 | 2.3 | – | 41.4 | 20.3 | 63.6 | 27.7 | 20.2 | 32.2 | – | 5.19 | – | –
14 | Cc1ccc2c(=O)n(C)c(SCc3ccc(C(=O)Nc4ccccc4N)cc3)nc2c1 | 88.2 | 59.8 | 52.9 | 59.8 | – | 52.7 | 23.3 | 78.9 | 84.3 | 41.7 | 74.9 | 5.61 | 5.44 | 5.92 | 5.51
